From patent publication US12102610B2, “Treprostinil salt” (Eli Lilly and Company, priority 2018, dated 2024)
Where a name gives a salt, the structure may show the parent alone.

Tests used:
[1] = Thermal stability by thermal gravimetric analysis (TGA); type: physicochemical
Method: The thermal stability of samples of treprostinil erbumine salt, prepared as described above, and treprostinil free acid, purchased from a chemical supply company, are analyzed through thermal gravimetric analyses (TGA) performed on a TA Instruments TGA-Q5000 thermal gravimetric analyzer and differential scanning calorimetry (DSC) performed on a TA Instruments Q2000 differential scanning calorimeter. FIGS. 1 (erbumine salt) and 2 (free acid) show overlays of the TGA thermograms from 25-225° C. and the DSC thermograms from 25-300° C. […] DSC data for the erbumine salt show a single endothermic event (likely melt or decomposition) beginning at 143.73° C. and three endothermic events (71.17° C., 95.57° C., and 125.15° C.) for the free acid, corresponding to what is likely a hydrate along with at least two anhydrous crystal forms.

[2] = Hygroscopicity by dynamic vapor sorption/resorption, with XRD of samples from the adsorption/desorption process; type: physicochemical; details: for weight increase at the 80% relative humidity point: dried samples, sorption in 5% RH steps; for hygroscopicity classification: from weight increase at 80% relative humidity, European Pharmacopoeia monograph 5.11 definitions, experimental conditions differ; for physical form change on humidity exposure (XRD): samples collected at different points in the adsorption/desorption process
Method: Hygroscopicity analyses of treprostinil erbumine salt, prepared as described above, and treprostinil sodium, purchased from a chemical supply company, are performed on a TA Instruments Q5000SA sorption analyzer. Hygroscopicity profiles are generated on dried samples at 25° C., increasing relative humidity by 5% up to 95%, then decreasing in 5% intervals back down to 5% relative humidity. The samples are equilibrated at each increment until weight percent change is <0.0100 for 5 min.

TGA weight loss ([1]; between 25-100° C.) [%]	thermally stable up to ([1]; conclusion from TGA/DSC thermal characterization data)	weight increase at the 80% relative humidity point ([2]; 25° C.) [%]	hygroscopicity classification [2]	TGA weight loss ([1]; between 26-70° C.) [%]	relative humidity at which desorption of water begins ([2]; 25° C., desorption in 5% RH steps from 95%) [% RH]	Structure (SMILES)	physical form change on humidity exposure (XRD) [2]
0.2318	at least 100 °C	< 0.2	non-hygroscopic to slightly hygroscopic			CCCCC[C@H](O)CC[C@@H]1[C@H]2Cc3cccc(OCC(=O)O)c3C[C@H]2C[C@H]1O [erbumine salt, 2-[[(1R,2R,3aS,9aS)-2-hydroxy-1-[(3S)-3-hydroxyoctyl]-2,3,3a,4,9,9a-hexahydro-1H-cyclopenta[g]naphthalen-5-yl]oxy]acetic acid t-butylamine]	did not show a physical form change
				1.090		CCCCC[C@H](O)CC[C@@H]1[C@H]2Cc3cccc(OCC(=O)O)c3C[C@H]2C[C@H]1O [free acid, (1R,2R,3aS,9aS)-[[2,3,3a,4,9,9a-Hexahydro-2-hydroxy-1-[(3S)-3-hydroxyoctyl]-1H-benz[f]inden-5-yl]oxy]acetic acid]	
		25	very hygroscopic		45	CCCCC[C@H](O)CC[C@@H]1[C@H]2Cc3cccc(OCC(=O)O)c3C[C@H]2C[C@H]1O [sodium salt]	non-reversible change to amorphous or poorly crystalline state
